Key:
rCor a 8 = target: T1, rCor a 8 (Corylus avellana, UniProt Q9ATH2); test: ANS displacement fluorescence; format: binding; conditions: 50 μmol/L ligand, protein:ligand 1:5
T1 construct: recombinant, produced in Pichia pastoris, purified
T1 sequence (Q9ATH2 24-115): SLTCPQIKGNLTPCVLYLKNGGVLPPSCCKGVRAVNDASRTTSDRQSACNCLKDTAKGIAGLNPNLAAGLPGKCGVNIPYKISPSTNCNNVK

rMal d 3 = target: T2, rMal d 3 (Malus domestica, UniProt Q9M5X7); test: ANS displacement fluorescence; format: binding; conditions: 50 μmol/L ligand, protein:ligand 1:5
T2 construct: gene MALD3; recombinant, produced in Pichia pastoris, purified
T2 sequence (Q9M5X7 25-115): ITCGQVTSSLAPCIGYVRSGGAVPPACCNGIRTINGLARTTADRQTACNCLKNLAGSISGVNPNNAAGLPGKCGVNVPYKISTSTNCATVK

| % reduction of ANS fluorescence at 50 μmol/L (rCor a 8) [%] | % reduction of ANS fluorescence at 50 μmol/L (rMal d 3) [%] | SMILES |
| --- | --- | --- |
| 23 | 59 | CCCCCCCC/C=C\CCCCCCCC(=O)O [OLE, oleic acid] |
|  | 17 | CCCCCCCCCCCCCCCCCC(=O)O [STE, stearic acid] |

Reference: article PMC6491988, “Distinct Lipid Transfer Proteins display different IgE‐binding activities that are affected by fatty acid binding” (Allergy, 2018)
